Measured values taken from US20260000713A1, “MICROBIAL M[…] INTESTINAL INFLAMMATION” (CEDARS-SINAI MEDICAL CENTER, priority 2021, published 2026).
Read-outs that look alike come from different tables or passages of the source.

Legend:
[1] = test system: GF WT mice or GF Tl1a-tg mice; details: 200 mM sodium acetate in drinking water for 3 months, vs regular drinking water
Procedure: (§1) Histology Scoring: Ileal tissues were collected 1-2 cm long near cecum, paraffin-embedded and stained with H&E for histological analysis. Severity of ileal inflammation was evaluated in a blinded manner according to previously described criteria by two trained animal pathologists. Spontaneous ileitis was evaluated by scoring the degree of inflammation, extent of involvement, crypt damage and villus changes as described. GF mice were evaluated using a scoring criterion.
The impact of acetate on the development of ileitis was examined.
(§2) Acetate supplementation: Sodium acetate (Sigma Aldrich) was added at 200 mM to drinking water. SPF mice were supplemented with acetate water for 2 or 4 months starting at 2 months of age. GF mice were supplemented with acetate water for 3 months starting at 2-3 months of age.
12-week-old littermate GF WT mice or GF Tl1a-tg mice were treated with 200 mM of sodium acetate in drinking water (ad libitum) for 3 months. […] The number of mice used was 12 to 22 mice per group.

[2] = test system: IFN-γ; details: MLN cells restimulated with anti-CD3ε and anti-CD28 for 3 days
Procedure: as §2
Isolation of mesenteric lymph nodes mononuclear cells, restimulation, and ELISA: Mesenteric lymph nodes (MLN) were removed from the peritoneal cavity and mesenteric fat was removed. Single cell suspension was prepared by crushing MLN between two glass slides and passing the cell suspension through a 40 μm cell strainer. Single-cell suspensions were restimulated with anti-CD3ε (0.5 μg/ml) and anti-CD28 (1 μg/ml) antibodies for 3 days. Cytokine levels in supernatants were measured by ELISA. Cytokine concentration in culture supernatants was assayed by ELISA for murine IFN-γ (eBioscience).
(§3) The groups depicted include WT H2O, WT Ac (acetate), Tl1a-tg H2O, and Tl1a-tg Ac. Around 12-19 mice were used in each group. […] Around 6 mice were used per group.

[3] = test system: Paneth cells; details: acetate treated GF WT or Tl1a-tg mice
Procedure: as §2, §3

[4] = test system: SPF WT mice or tl1a-tg mice
Procedure: as §1, §2
In a second set of experiments, SPF WT mice or tl1a-tg mice were treated with acetate in drinking water for 2 or 4 months starting at 2 months of age. […] 9 to 23 mice were used per group.

[5] = test system: Germ-free IBD susceptible mice; details: Germ-free Tl1a-Tg mice receiving acetate vs standard water
Procedure: as §2

CC(=O)[O-].[Na+] [acetate, Sodium acetate]
ileal inflammation (ileum histoscore) ([1]; GF Tl1a-tg mice): developed ileal inflammation | ileal inflammation (ileum histoscore) ([1]; GF WT mice): developed ileal inflammation | IFN-γ secretion by MLN ([2]; acetate treated GF Tl1a-tg mice): significantly elevated IFN-γ secretion | IFN-γ secretion by MLN ([2]; acetate treated GF WT mice): significantly elevated IFN-γ secretion | Paneth cell granule maturation (percentage of Paneth cells with D0, D1, D2, D3 features) [3]: did not result in normal Paneth cell granule maturation | ileitis (histoscore) ([4]; SPF Tl1a-tg mice, acetate in drinking water for 2 months starting at 2 months of age, vs age-matched water controls): led to ileitis | ileal inflammation (histoscore) ([4]; SPF WT mice, acetate in drinking water for 4 months starting at 2 months of age, vs water controls): developed ileal inflammation | cecal collagen deposition (fibrosis) [5]: increase in cecal collagen deposition
